Reference: patent US20250353841A1 (BIOGEN MA INC., priority 2022, published 2025)

Tested on: mutant Huntington (HTT) protein
Experiment: HTT Mutant HTRF iPSC assay (mHTT protein lowering)
Assay type: cell-based
Details: human iPSC derived from a HTT patient with a poly-Q49 mutation

Structure (SMILES)	IC50 [nM]
Fc1cc(-c2ccc3[nH]ncc3c2)cn2cc(C3CCNCC3)nc12 [Compound 59, 5-(8-fluoro-2-(piperidin-4-yl)imidazo[1,2-a]pyridin-6-yl)-1H-indazole]	1000 to 9000
Cc1nc2ccc(-c3cc(F)c4nc([C@H]5[C@@H]6CN(C)C[C@@H]65)cn4c3)nn2n1 [Compound 219, 6-(8-fluoro-2-((1R,5S,6r)-3-methyl-3-azabicyclo[3.1.0]hexan-6-yl)imidazo[1,2-a]pyridin-6-yl)-2-methyl-[1,2,4]triazolo[1,5-b]pyridazine]	100 to 1000
Cc1cc(-c2cc(F)c3nc(C4CCNCC4)cn3c2)ccc1C#N [Compound 38, 4-(8-fluoro-2-(piperidin-4-yl)imidazo[1,2-a]pyridin-6-yl)-2-methylbenzonitrile]	1000 to 9000
Cc1cn2nc(-c3cc(F)c4nc(N5CCC(C)(CN(C)C)C5)oc4c3)cc(C)c2n1 (centres unmarked) [Compound 474, 1-(1-(6-(2,8-dimethylimidazo[1,2-b]pyridazin-6-yl)-4-fluorobenzo[d]oxazol-2-yl)-3-methylpyrrolidin-3-yl)-N,N-dimethylmethanamine]	100 to 1000
Cc1cn2nc(-c3cc(F)c4nn(C5CCNCC5)cc4c3)cc(C(F)F)c2n1 [Compound 350, 8-(difluoromethyl)-6-[7-fluoro-2-(4-piperidyl)indazol-5-yl]-2-methyl-imidazo[1,2-b]pyridazine]	< 100
Cc1cn2nc(-c3cc(F)c4nn(C5CCN(C)CC5)cc4c3)cc(C(F)F)c2n1 [Compound 363, 8-(difluoromethyl)-6-(7-fluoro-2-(1-methylpiperidin-4-yl)-2H-indazol-5-yl)-2-methylimidazo[1,2-b]pyridazine]	< 100
Cc1cn2nc(-c3cc(F)c4[nH]c(C5CCN(C6CCC6)CC5)nc4c3)cc(C)c2n1 [Compound 426, 6-(2-(1-cyclobutylpiperidin-4-yl)-7-fluoro-1H-benzo[d]imidazol-5-yl)-2,8-dimethylimidazo[1,2-b]pyridazine]	< 100
Cc1cn2nc(-c3cc(F)c4nc(C5CCNC(C)C5)cn4c3)ccc2n1 (centres unmarked) [Compound 61, 6-(8-fluoro-2-(2-methylpiperidin-4-yl)imidazo[1,2-a]pyridin-6-yl)-2-methylimidazo[1,2-b]pyridazine]	< 100
Cc1cn2nc(-c3cc(F)c4nc(NC(=O)C5CCCNC5)cn4c3)cc(C)c2n1 (centres unmarked) [Compound 248, N-(6-(2,8-dimethylimidazo[1,2-b]pyridazin-6-yl)-8-fluoroimidazo[1,2-a]pyridin-2-yl)piperidine-3-carboxamide]	< 100
Cc1cn2nc(-c3cc(F)c4nn(CC5CCNC5)nc4c3)cc(C)c2n1 (centres unmarked) [Compound 386, 6-(2,8-dimethylimidazo[1,2-b]pyridazin-6-yl)-4-fluoro-2-(pyrrolidin-3-ylmethyl)-2H-benzo[d][1,2,3]triazole]	< 100
Cc1cn2nc(-c3cc(F)c4nc(NC(=O)CN5CCCCC5)cn4c3)cc(C)c2n1 [Compound 275, N-(6-(2,8-dimethylimidazo[1,2-b]pyridazin-6-yl)-8-fluoroimidazo[1,2-a]pyridin-2-yl)-2-(piperidin-1-yl)acetamide]	< 100
COc1cc(-c2cc3c(C)nc(C)cn3n2)cn2cc([C@H]3[C@@H]4CN(C)C[C@@H]43)nc12 [Compound 542, 2-(8-methoxy-2-((1R,5S,6r)-3-methyl-3-azabicyclo[3.1.0]hexan-6-yl)imidazo[1,2-a]pyridin-6-yl)-4,6-dimethylpyrazolo[1,5-a]pyrazine]	100 to 1000
Cn1cc2cc(-c3cc(F)c4[nH]c(C5CCNCC5)nc4c3)cc(F)c2n1 [Compound 141, 7-fluoro-5-(7-fluoro-2-(piperidin-4-yl)-1H-benzo[d]imidazol-5-yl)-2-methyl-2H-indazole]	1000 to 9000
Cc1cn2nc(-c3cc(F)c4nc(C5CCN(C6CC6)CC5)cn4c3)cc(C(F)F)c2n1 [Compound 167, 6-(2-(1-cyclopropylpiperidin-4-yl)-8-fluoroimidazo[1,2-a]pyridin-6-yl)-8-(difluoromethyl)-2-methylimidazo[1,2-b]pyridazine]	< 100
